These results are taken from patent US20200022370A1, “MICROBIOCIDAL OXADIAZOLE DERIVATIVES” (SYNGENTA PARTICIPATIONS AG, priority 2016, published 2020).

Assay [1] relates to Puccinia recondita f. Sp. Tritici. Briefly: Puccinia recondita f. sp. tritici / wheat / leaf disc preventative (brown rust). The class given is in vivo. The settings on record: foliar, read-out: disease control. The method, then:
Leaf disks or leaf segments of various plant species are cut from plants grown in a greenhouse. The cut leaf disks or segments are placed in multiwell plates (24-well format) onto water agar. The leaf disks are sprayed with a test solution before (preventative) or after (curative) inoculation. Compounds to be tested are prepared as DMSO solutions (max. 10 mg/ml) which are diluted to the appropriate concentration with 0.025% Tween20 just before spraying. The inoculated leaf disks or segments are incubated under defined conditions (temperature, relative humidity, light, etc.) according to the respective test system. A single evaluation of disease level is carried out 3 to 14 days after inoculation, depending on the pathosystem. Percent disease control relative to the untreated check leaf disks or segments is then calculated.
Example 1: Fungicidal Activity Against Puccinia recondita f. Sp. Tritici/Wheat/Leaf Disc Preventative (Brown Rust)
Wheat leaf segments cv. Kanzler were placed on agar in multiwell plates (24-well format) and sprayed with the Formulated test compound diluted in water. The leaf disks were inoculated with a spore suspension of the fungus 1 day after application. The inoculated leaf segments were incubated at 19° C. and 75% relative humidity (rh) under a light regime of 12 hours light/12 hours darkness in a climate cabinet and the activity of a compound was assessed as percent disease control compared to untreated when an appropriate level of disease damage appears in untreated check leaf segments (7 to 9 days after application).
The following compounds at 200 ppm in the applied Formulation give at least 80% disease control in this test when compared to untreated control leaf disks under the same conditions, which show extensive disease development.

Assay [2] relates to Glomerella lacenarium (Colletotrichum lacenarium). The assay can be described thus: Glomerella lacenarium (Colletotrichum lacenarium) liquid culture / cucumber / preventative (anthracnose). The class given is cell-based. The settings on record: read-out: disease control. The method, then:
Mycelia fragments or conidia suspensions of a fungus prepared either freshly from liquid cultures of the fungus or from cryogenic storage, are directly mixed into nutrient broth. DMSO solutions of the test compound (max. 10 mg/ml) are diluted with 0.025% Tween20 by a factor of 50 and 10 μl of this solution is pipetted into a microtiter plate (96-well format). The nutrient broth containing the fungal spores/mycelia fragments is then added to give an end concentration of the tested compound. The test plates are incubated in the dark at 24° C. and 96% relative humidity. The inhibition of fungal growth is determined photometrically after 2 to 7 days, depending on the pathosystem, and percent antifungal activity relative to the untreated check is calculated.
Example 4: Fungicidal Activity Against Glomerella lacenarium (Colletotrichum lacenarium) Liquid Culture/Cucumber/Preventative (Anthracnose)
Conidia of the fungus from cryogenic storage are directly mixed into nutrient broth (PDB-potato dextrose broth). After placing a (DMSO) solution of test compound into a microtiter plate (96-well format), the nutrient broth containing the fungal spores is added. The test plates are incubated at 24° C. and the inhibition of growth is measured photometrically 3 to 4 days after application.
The following compounds at 20 ppm in the applied Formulation give at least 80% disease control in this test when compared to untreated control under the same conditions, which show extensive disease development.

Setting [3] is: 200 ppm in the applied formulation, wheat leaf segments cv. Kanzler, inoculated 1 day after application, vs untreated, 7 to 9 days after application.
Setting [4] is: 20 ppm, liquid culture in PDB, 24° C., inhibition of growth measured photometrically 3 to 4 days after application, vs untreated.

Like-named read-outs stand apart in the source and are kept apart here. Some results are limits rather than exact numbers.

Regarding `CC(C)(C)OC(=O)NC(C(=O)Nc1ccc(-c2noc(C(F)(F)F)n2)cc1)c1ccccc1` (stereo not shown) [Compound 1.18, tert-butyl N-[2-oxo-1-phenyl-2-[4-[5-(trifluoromethyl)-1,2,4-oxadiazol-3-yl]anilino]ethyl] carbamate], the pest or weed control at 200 ppm in assay [1] (setting [3]) was at least 80%.
Take `O=C(CF)Nc1ccc(-c2noc(C(F)(F)F)n2)cc1` [Compound 1.19, 2-fluoro-N-[4-[5-(trifluoromethyl)-1,2,4-oxadiazol-3-yl]phenyl]acetamide]: the pest or weed control at 200 ppm in assay [1] was at least 80%. Also, in assay [2], the inhibition of growth at 20 ppm was at least 80%.
`CC=CC=CC(=O)NC1(C(=O)Nc2ccc(-c3noc(C(F)(F)F)n3)cc2)CCCC(C)C1` (stereo not shown) [Compound 1.21, 1-(hexa-2,4-dienoylamino)-3-methyl-N-[4-[5-(trifluoromethyl)-1,2,4-oxadiazol-3-yl]phenyl]cyclo-hexanecarboxamide]: the pest or weed control at 200 ppm in assay [1] (setting [3]) is at least 80%.
Turning to `CC(=O)Nc1ccc(CC(=O)Nc2ccc(-c3noc(C(F)(F)F)n3)cc2)cc1` [Compound 1.26, 2-(4-acetamidophenyl)-N-[4-[5-(trifluoromethyl)-1,2,4-oxadiazol-3-yl]phenyl]acetamide], the pest or weed control at 200 ppm in assay [1] (setting [3]) is at least 80%.
As to `O=C(CSc1ccccc1)Nc1ccc(-c2noc(C(F)(F)F)n2)cc1` [Compound 1.44, 2-phenylsulfanyl-N-[4-[5-(trifluoromethyl)-1,2,4-oxadiazol-3-yl]phenyl]acetamide], the pest or weed control at 200 ppm in assay [1] (setting [3]) is at least 80%. The inhibition of growth at 20 ppm in assay [2] (setting [4]) was at least 80%.
Consider `O=C(Cc1ccc2c(c1)OCO2)Nc1ccc(-c2noc(C(F)(F)F)n2)nc1` [Compound 1.48, 2-(1,3-benzodioxol-5-yl)-N-[6-[5-(trifluoromethyl)-1,2,4-oxadiazol-3-yl]-3-pyridyl]acetamide], for which the inhibition of growth at 20 ppm in assay [2] (setting [4]) was at least 80%.
As to `N#Cc1cc(F)c(C(=O)Nc2ccc(-c3noc(C(F)(F)F)n3)nc2)c(F)c1` [Compound 1.49, 4-cyano-2,6-difluoro-N-[6-[5-(trifluoromethyl)-1,2,4-oxadiazol-3-yl]-3-pyridyl]benzamide], in assay [1] (setting [3]), the pest or weed control at 200 ppm is at least 80%.
In the case of `CON(C)C(=O)Nc1ccc(-c2noc(C(F)(F)F)n2)nc1` [Compound 1.65, 1-methoxy-1-methyl-3-[6-[5-(trifluoromethyl)-1,2,4-oxadiazol-3-yl]-3-pyridyl]urea], the inhibition of growth at 20 ppm in assay [2] (setting [4]) is at least 80%.
Take `O=C(CCc1ccccc1)Nc1ccc(-c2noc(C(F)(F)F)n2)cc1` [Compound 1.76, 3-phenyl-N-[4-[5-(trifluoromethyl)-1,2,4-oxadiazol-3-yl]phenyl] propanamide]: the pest or weed control at 200 ppm in assay [1] (setting [3]) is at least 80%. The inhibition of growth at 20 ppm in assay [2] (setting [4]) is at least 80%.
Regarding `CC(Oc1ccccc1)C(=O)Nc1ccc(-c2noc(C(F)(F)F)n2)cc1` (stereo not shown) [Compound 1.79, 2-phenoxy-N-[4-[5-(trifluoromethyl)-1,2,4-oxadiazol-3-yl]phenyl] propanamide], in assay [2] (setting [4]), the inhibition of growth at 20 ppm is at least 80%.
For `O=C(CC1CC1)Nc1ccc(-c2noc(C(F)(F)F)n2)cc1` [Compound 1.80, 2-cyclopropyl-N-[4-[5-(trifluoromethyl)-1,2,4-oxadiazol-3-yl]phenyl]acetamide], in assay [1] (setting [3]), the pest or weed control at 200 ppm was at least 80%. The inhibition of growth at 20 ppm in assay [2] (setting [4]) is at least 80%.
`O=C(Nc1ccc(-c2noc(C(F)(F)F)n2)cc1)C1CSC1` [Compound 1.82, N-[4-[5-(trifluoromethyl)-1,2,4-oxadiazol-3-yl]phenyl]thietane-3-carboxamide]: in assay [1] (setting [3]), the pest or weed control at 200 ppm is at least 80%. Moreover, the inhibition of growth at 20 ppm in assay [2] (setting [4]) was at least 80%.
On to `COC(=O)CCC(=O)Nc1ccc(-c2noc(C(F)(F)F)n2)cc1` [Compound 1.83, methyl 4-oxo-4-[4-[5-(trifluoromethyl)-1,2,4-oxadiazol-3-yl]anilino]butanoate], for which the pest or weed control at 200 ppm in assay [1] (setting [3]) was at least 80%. Further, in assay [2] (setting [4]), the inhibition of growth at 20 ppm was at least 80%.
Consider `O=C(Cc1cccnc1)Nc1ccc(-c2noc(C(F)(F)F)n2)cc1` [Compound 1.84, 2-(3-pyridyl)-N-[4-[5-(trifluoromethyl)-1,2,4-oxadiazol-3-yl]phenyl]acetamide], for which, in assay [1] (setting [3]), the pest or weed control at 200 ppm is at least 80%. Also, in assay [2] (setting [4]), the inhibition of growth at 20 ppm is at least 80%.
For the molecule `C=CCCC(=O)Nc1ccc(-c2noc(C(F)(F)F)n2)cc1` [Compound 1.88, N-[4-[5-(trifluoromethyl)-1,2,4-oxadiazol-3-yl]phenyl]pent-4-enamide], in assay [1] (setting [3]), the pest or weed control at 200 ppm was at least 80%. Besides, in assay [2] (setting [4]), the inhibition of growth at 20 ppm is at least 80%.
With `O=C(Cc1cccs1)Nc1ccc(-c2noc(C(F)(F)F)n2)cc1` [Compound 1.89, 2-(2-thienyl)-N-[4-[5-(trifluoromethyl)-1,2,4-oxadiazol-3-yl]phenyl]acetamide], the pest or weed control at 200 ppm in assay [1] (setting [3]) was at least 80%. For the same molecule, the inhibition of growth at 20 ppm in assay [2] (setting [4]) is at least 80%.
`C=CCCCCC(=O)Nc1ccc(-c2noc(C(F)(F)F)n2)cc1` [Compound 1.93, N-[4-[5-(trifluoromethyl)-1,2,4-oxadiazol-3-yl]phenyl]hept-6-enamide]: the inhibition of growth at 20 ppm in assay [2] (setting [4]) is at least 80%.
Same read-out and setting: then `O=C(Cc1ccc(C(F)(F)F)nc1)Nc1ccc(-c2noc(C(F)(F)F)n2)cc1` [Compound 1.108, N-[4-[5-(trifluoromethyl)-1,2,4-oxadiazol-3-yl]phenyl]-2-[6-(trifluoromethyl)-3-pyridyl]acetamide], with at least 80%; and `CC(C)CCC(=O)Nc1ccc(-c2noc(C(F)(F)F)n2)cc1` [Compound 1.110, 4-methyl-N-[4-[5-(trifluoromethyl)-1,2,4-oxadiazol-3-yl]phenyl] pentanamide], with at least 80%; and `O=C(Cc1cccc(C(F)(F)F)n1)Nc1ccc(-c2noc(C(F)(F)F)n2)cc1` [Compound 1.114, N-[4-[5-(trifluoromethyl)-1,2,4-oxadiazol-3-yl]phenyl]-2-[6-(trifluoromethyl)-2-pyridyl]acetamide], with at least 80%.
For `O=C(Cc1cc(F)cc(F)c1)Nc1ccc(-c2noc(C(F)(F)F)n2)cc1` [Compound 1.117, 2-(3,5-difluorophenyl)-N-[4-[5-(trifluoromethyl)-1,2,4-oxadiazol-3-yl]phenyl]acetamide], the inhibition of growth at 20 ppm in assay [2] (setting [4]) is at least 80%.
`O=C(Cc1ccc(OC(F)(F)F)cc1)Nc1ccc(-c2noc(C(F)(F)F)n2)cc1` [Compound 1.119, 2-[4-(trifluoromethoxy)phenyl]-N-[4-[5-(trifluoromethyl)-1,2,4-oxadiazol-3-yl]phenyl]acetamide]: in assay [2] (setting [4]), the inhibition of growth at 20 ppm was at least 80%.
Still for that read-out and setting: next, `CN(C(=O)c1ccccc1Cl)c1ccc(-c2noc(C(F)(F)F)n2)cc1` [Compound 1.134, 2-chloro-N-methyl-N-[4-[5-(trifluoromethyl)-1,2,4-oxadiazol-3-yl]phenyl]benzamide]: at least 80%; `CCOCC(=O)Nc1ccc(-c2noc(C(F)(F)F)n2)cc1` [Compound 2.10, 2-ethoxy-N-[4-[5-(trifluoromethyl)-1,2,4-oxadiazol-3-yl]phenyl] acetamide]: at least 80%; `CC1(C)CC1C(=O)Nc1ccc(-c2noc(C(F)(F)F)n2)cc1` (stereo not shown) [Compound 2.12, 2,2-dimethyl-N-[4-[5-(trifluoromethyl)-1,2,4-oxadiazol-3-yl]phenyl] cyclopropane-carboxamide]: at least 80%.
On the same count and under the same terms, next, `C=CCON(C)C(=O)Nc1ccc(-c2noc(C(F)(F)F)n2)cc1` [Compound 2.21, 1-allyloxy-1-methyl-3-[4-[5-(trifluoromethyl)-1,2,4-oxadiazol-3-yl]phenyl]urea]: at least 80%.
The same measure, in the same setting: next, `O=C(NCC(F)(F)F)Nc1ccc(-c2noc(C(F)(F)F)n2)cc1` [Compound 2.22, 1-(2,2,2-trifluoroethyl)-3-[4-[5-(trifluoromethyl)-1,2,4-oxadiazol-3-yl]phenyl]urea]: at least 80%; `CN(C(=O)CC1CC1)c1ccc(-c2noc(C(F)(F)F)n2)cc1` [Compound 2.26, 2-cyclopropyl-N-methyl-N-[4-[5-(trifluoromethyl)-1,2,4-oxadiazol-3-yl]phenyl]acetamide]: at least 80%.
